Our source for the MIC90 values is patent publication US9630977B2, “Cephalosporin derivatives and pharmaceutical compositions thereof” (Legochem Biosciences, Inc., priority 2011, dated 2017).

In brackets after ≈: the same amount, converted by molar mass. Like-named read-outs stand apart in the source and are kept apart here. Where only a bound is given, the exact number is not on record here.

What all share (experiment): In vitro antibacterial activity test (broth microdilution)
What all share (format): cell-based
For orientation: Broth dilution looks for growth in wells or tubes with falling amounts of substance.

For test [1], the system named is A. calcoaceticus ATCC15473. The conditions noted are these: Acinetobacter calcoaceticus. In a few lines:
(§1)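 MIC90 was determined by CLSI broth microdilution against clinical isolates, as the lowest concentration inhibiting visible growth of 90% of organisms relative to untreated control. Final compound concentrations spanned 0.0626–128 ug/mL with 2.5% (V/V) DMSO.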

Another test concerns K. pneumoniae β14. The conditions noted are these: Klebsiella pneumoniae. In a few lines: as §1
The next test deals with P. aeruginosa 6065Y. The conditions noted are these: Pseudomonas aeruginosa. In a few lines: as §1
A further test has as its system E. cloacae β19. The conditions noted are these: Enterobacter cloacae. In a few lines:
as §1

A further test concerns K. pneumoniae 2011E. The conditions noted are these: Klebsiella pneumoniae, 2011E. In a few lines: as §1
The test system of another test is M. catarrhalis 2524. The conditions noted are these: Moraxella catarrhalis. An outline of the steps: as §1
In a further test the test system is E. coli AG100. The conditions noted are these: Escherichia coli. An outline of the steps: as §1
The test system of another test is P. aeruginosa 37. The conditions noted are these: Pseudomonas aeruginosa, 37, P. aeruginosa 37. An outline of the steps: as §1
A further test relates to K. pneumoniae β11. The conditions noted are these: Klebsiella pneumoniae. An outline of the steps: as §1
The test system of a further test is K. pneumoniae β10. The conditions noted are these: Klebsiella pneumoniae. In a few lines:
as §1

The subject of a further test is A. baumannii 49. In a few lines: as §1
A further test has as its system P. aeruginosa 1912E. The conditions noted are these: Pseudomonas aeruginosa, 1912E. In a few lines:
as §1

The subject of another test is P. aeruginosa 43. The conditions noted are these: Pseudomonas aeruginosa. In a few lines: as §1
The next test has as its system K. pneumoniae β13. The conditions noted are these: Klebsiella pneumoniae. In a few lines: as §1
For another test, the system named is E. coli β4. The conditions noted are these: Escherichia coli. An outline of the steps: as §1
A further test relates to K. pneumoniae β9. The conditions noted are these: Klebsiella pneumoniae. In a few lines: as §1
The subject of another test is A. baumannii 46. An outline of the steps: as §1
The next test concerns P. aeruginosa 40. In a few lines:
as §1

The test system of another test is A. baumannii 52. The conditions noted are these: Acinetobacter baumannii. An outline of the steps: as §1
Where [2] appears, read: ATCC15473, A. calcoaceticus ATCC15473.
The mark [3] stands for this setting: Acinetobacter baumannii, 49, A. baumannii 49.
Setting [4] is: Acinetobacter baumannii, 46, A. baumannii 46.

On to `CC(C)(O/N=C(\C(=O)N[C@@H]1C(=O)N2C(C(=O)[O-])=C(/C=C/C[n+]3cnc(N)c(NCCNC(=O)c4cc(=O)c(O)cn4O)c3)CSC12)c1nsc(N)n1)C(=O)O` (stereo partly shown) [Compound 25], for which the MIC90 in test [1] (A. calcoaceticus ATCC15473, read-out: MIC90) was 0.25 µg/mL (≈ 0.312 µM); with K. pneumoniae β14 (read-out: MIC90), 16 µg/mL (≈ 20 µM); in the test on P. aeruginosa 6065Y (read-out: MIC90), 0.5 µg/mL (≈ 0.624 µM); in the test with E. cloacae β19 (read-out: MIC90) it was 1 µg/mL (≈ 1.25 µM); with K. pneumoniae 2011E (K. pneumoniae 2011E, read-out: MIC90), 0.25 µg/mL (≈ 0.312 µM); in the test on M. catarrhalis 2524 (M. catarrhalis 2524, read-out: MIC90), less than 0.0625 µg/mL. In addition, the MIC90 was less than 0.0625 µg/mL in the test with E. coli AG100 (AG100, E. coli AG100, read-out: MIC90); less than 0.0625 µg/mL in the test with P. aeruginosa 37 (read-out: MIC90); more than 128 µg/mL in the test with K. pneumoniae β11 (K. pneumoniae β11, read-out: MIC90); less than 0.0625 µg/mL in the test with K. pneumoniae β10 (K. pneumoniae β10, read-out: MIC90); 128 µg/mL (≈ 160 µM) with A. baumannii 49 (Acinetobacter baumannii, A. baumannii 49, read-out: MIC90); 0.25 µg/mL (≈ 0.312 µM) in the test on P. aeruginosa 1912E (read-out: MIC90). For the same compound, the MIC90 was 0.25 µg/mL (≈ 0.312 µM) in the test with P. aeruginosa 43 (P. aeruginosa 43, read-out: MIC90); less than 0.0625 µg/mL in the test with K. pneumoniae β13 (K. pneumoniae β13, read-out: MIC90); less than 0.0625 µg/mL with E. coli β4 (read-out: MIC90); less than 0.0625 µg/mL in the test on K. pneumoniae β9 (K. pneumoniae β9, read-out: MIC90); 0.5 µg/mL (≈ 0.624 µM) with A. baumannii 46 (Acinetobacter baumannii, A. baumannii 46, read-out: MIC90); less than 0.0625 µg/mL in the test with P. aeruginosa 40 (Pseudomonas aeruginosa, 40, P. aeruginosa 40, read-out: MIC90). In the test on A. baumannii 52 (A. baumannii 52, read-out: MIC90), the MIC90 is 8 µg/mL (≈ 9.99 µM).

With `CC(C)(O/N=C(\C(=O)N[C@@H]1C(=O)N2C(C(=O)[O-])=C(C[n+]3cnc(NCCCCN)c(NCCCCN)c3)CSC12)c1csc(N)n1)C(=O)O` (stereo partly shown) [Compound 41], the MIC90 in test [1] (setting [2]) is 1 µg/mL (≈ 1.39 µM); against K. pneumoniae β14, 2 µg/mL (≈ 2.78 µM); against P. aeruginosa 6065Y (6065Y), 16 µg/mL (≈ 22.2 µM); against E. cloacae β19 it was 4 µg/mL (≈ 5.56 µM); in the test with K. pneumoniae 2011E it was 4 µg/mL (≈ 5.56 µM); with M. catarrhalis 2524 (2524) it was 0.125 µg/mL (≈ 0.174 µM). In addition, the MIC90 with E. coli AG100 (AG100) is 1 µg/mL (≈ 1.39 µM); in the test with P. aeruginosa 37, 8 µg/mL (≈ 11.1 µM); against K. pneumoniae β11, 8 µg/mL (≈ 11.1 µM); in the test on K. pneumoniae β10, 2 µg/mL (≈ 2.78 µM); with A. baumannii 49 (setting [3]) it was 32 µg/mL (≈ 44.5 µM); in the test with P. aeruginosa 1912E, 4 µg/mL (≈ 5.56 µM). Moreover, the MIC90 in the test on P. aeruginosa 43 (43) amounted to 128 µg/mL (≈ 178 µM); against K. pneumoniae β13, 2 µg/mL (≈ 2.78 µM); with E. coli β4, 1 µg/mL (≈ 1.39 µM); with K. pneumoniae β9, 2 µg/mL (≈ 2.78 µM); in the test with A. baumannii 46 (setting [4]), 32 µg/mL (≈ 44.5 µM); in the test with P. aeruginosa 40 (Pseudomonas aeruginosa, 40), 4 µg/mL (≈ 5.56 µM). The compound further displayed an MIC90 with A. baumannii 52 (52) of 32 µg/mL (≈ 44.5 µM).

As to `CC(C)(O/N=C(\C(=O)N[C@@H]1C(=O)N2C(C(=O)[O-])=C(/C=C/C[n+]3cnc(N)c(NC(=O)CN)c3N)CSC12)c1csc(N)n1)C(=O)O` (stereo partly shown) [Compound 43], the MIC90 in test [1] (setting [2]) was 4 µg/mL (≈ 5.92 µM); in the test with K. pneumoniae β14 it was 1 µg/mL (≈ 1.48 µM); in the test on P. aeruginosa 6065Y (6065Y), 16 µg/mL (≈ 23.7 µM); in the test with E. cloacae β19, 0.5 µg/mL (≈ 0.74 µM); against K. pneumoniae 2011E, 0.5 µg/mL (≈ 0.74 µM); in the test on M. catarrhalis 2524 (2524) it was less than 0.0625 µg/mL. In addition, the MIC90 in the test with E. coli AG100 (AG100) was 0.25 µg/mL (≈ 0.37 µM); against P. aeruginosa 37, 32 µg/mL (≈ 47.4 µM); in the test on K. pneumoniae β11 it was 32 µg/mL (≈ 47.4 µM); in the test with K. pneumoniae β10 it was 0.5 µg/mL (≈ 0.74 µM); in the test with A. baumannii 49 (setting [3]), more than 128 µg/mL; against P. aeruginosa 1912E, 4 µg/mL (≈ 5.92 µM). The MIC90 is more than 128 µg/mL in the test with P. aeruginosa 43 (43); 0.5 µg/mL (≈ 0.74 µM) in the test with K. pneumoniae β13; 0.5 µg/mL (≈ 0.74 µM) against E. coli β4; 1 µg/mL (≈ 1.48 µM) in the test with K. pneumoniae β9; 32 µg/mL (≈ 47.4 µM) against A. baumannii 46 (setting [4]); 16 µg/mL (≈ 23.7 µM) against P. aeruginosa 40 (Pseudomonas aeruginosa, 40). In the test with A. baumannii 52 (52), this compound displayed an MIC90 of more than 128 µg/mL.

`CC(C)(O/N=C(\C(=O)N[C@@H]1C(=O)N2C(C(=O)[O-])=C(/C=C/C[n+]3cnc(N)c(NCCN)c3N)CSC12)c1csc(N)n1)C(=O)O` (stereo partly shown) [Compound 44]: the MIC90 in test [1] (setting [2]) is 1 µg/mL (≈ 1.51 µM); against K. pneumoniae β14, 1 µg/mL (≈ 1.51 µM); in the test on P. aeruginosa 6065Y (6065Y), 32 µg/mL (≈ 48.4 µM); against E. cloacae β19, 0.5 µg/mL (≈ 0.756 µM); against K. pneumoniae 2011E it was 0.5 µg/mL (≈ 0.756 µM); in the test on M. catarrhalis 2524 (2524) it was less than 0.0625 µg/mL. The MIC90 in the test with E. coli AG100 (AG100) is 0.25 µg/mL (≈ 0.378 µM); in the test with P. aeruginosa 37, 16 µg/mL (≈ 24.2 µM); in the test with K. pneumoniae β11 it was 32 µg/mL (≈ 48.4 µM); in the test on K. pneumoniae β10 it was 0.5 µg/mL (≈ 0.756 µM); against A. baumannii 49 (setting [3]), more than 128 µg/mL; against P. aeruginosa 1912E it was 8 µg/mL (≈ 12.1 µM). The MIC90 worked out at 128 µg/mL (≈ 193 µM) against P. aeruginosa 43 (43); 1 µg/mL (≈ 1.51 µM) against K. pneumoniae β13; 0.5 µg/mL (≈ 0.756 µM) against E. coli β4; 1 µg/mL (≈ 1.51 µM) in the test on K. pneumoniae β9; 16 µg/mL (≈ 24.2 µM) in the test on A. baumannii 46 (setting [4]); 16 µg/mL (≈ 24.2 µM) against P. aeruginosa 40 (Pseudomonas aeruginosa, 40). This compound displayed an MIC90 against A. baumannii 52 (52) of more than 128 µg/mL.

What is called MIC90 is an inhibitory concentration at the 90% level, which refers to growth in some studies and to a panel of isolates in others.
